Data on five compounds can be found in US11198869B2, “Angelman syndrome antisense treatment” (The Texas A&M University System, priority 2017, dated 2021).

Data set [1] relates to UBE3A-AS. In words: UBE3A-AS RNA levels in CNS regions of Cynomolgus macaque after intrathecal lumbar puncture (SYBR Green qRT-PCR). It counts as in vivo, Cynomolgus macaque (Macaca fascicularis). The conditions noted are these: for UBE3A-AS RNA levels in CNS regions (in words) / Cohen's d, effect size on UBE3A-AS RNA levels in CNS: 10 mg single intrathecal bolus, 28 days; for Difference in UBE3A-AS RNA levels relative to vehicle: Cynomolgus macaque, single 10 mg intrathecal lumbar puncture, 28 days after treatment. As for the experimental part: The ASO-4 and ASO-6 target regions are conserved across several non-human primate (NHP) species, thus enabling both safety and efficacy studies in a large animal model. To examine the efficacy of ASO-4.4.PS.L and ASO-6.1.PO-1.O in the central nervous system (CNS), ASOs were delivered to Cynomolgus macaques by intrathecal lumbar puncture. Animals were administered a single bolus injection of vehicle (0.9% saline, n=5), ASO-6.1.PO-1.O (10 mg, n=3), and ASO.4.4.PS.L (10 mg, n=3). Twenty-eight days following treatment, central nervous (CNS) tissues were collected and the steady state RNA levels of UBE3A-AS were measured.
NHP studies were performed at Northern Biomedical Research and Charles River Laboratories using protocols approved by the institutions respective Institutional Animal Care and Use Committees. Male and female Cynomolgus macaques (Macaca fascicularis) weighing 2-4 kg were anesthetized and single 1 mL dose of ASO or vehicle was administered via intrathecal lumbar puncture. The dosing solution was prepared by dissolution of lyophilized ASO in the vehicle control article (0.9% sodium chloride) and was filtered through a 0.2-μm filter. CNS and spinal cord samples were harvested, and the CNS was sectioned into 4-mm coronal slices. Tissue samples were flash frozen and stored at −80° C. until RNA isolation.
A 4 mm tissue punch was taken from each region of interest of which approximately half was used for RNA isolation. RNA isolation was performed using the Qiagen RNeasy Plus Mini kit (74136, Qiagen) with tissue disruption and lysis performed with 5 mm stainless steel beads in a TissueLyser II. The RNA was eluted in two volumes of 30 μl water, for a total elution volume of 60 μl. RNA was quantified using the Qubit with the RNA XR assay (Q33224, Thermo Fisher Scientific). cDNA was synthesized from 2 μg of input RNA using the High Capacity RNA-to-cDNA kit (4387406, Thermo Fisher Scientific) in a total reaction volume of 50 μl.
Cynomolgus macaque UBE3A-AS RNA levels were estimated using SYBR Green quantitative reverse-transcription PCR (qRT-PCR). Total reaction volume was 10 μl, including 2 μl of cDNA, 1× PowerUp SYBR Green Master mix (A25741, Thermo Fisher Scientific), and 500 nM of each primer (forward and reverse). Cycling conditions were 2 minutes at 50° C., 2 minutes at 95° C., and 40 cycles of 15 seconds at 95° C. and 1 minute at 60° C., with readings taken at the 60° C. step of every cycle. Reactions were run on a BIO-RAD T1000 CFX96 thermocycler, with internal control (PPIA, forward: […] (SEQ ID NO:503); reverse: […] (SEQ ID NO:504)) and target (UBE3A-AS, forward: […] (SEQ ID NO:505); reverse: […] (SEQ ID NO:506)) reactions performed separately. Data was retrieved and initial analysis was done with the BIORAD CFX Maestro software, with in depth statistical analyses performed with Excel and JMP.

The test system of data set [2] is UBE3A-AS. Description: UBE3A-AS steady state RNA (qRT-PCR) in glutamatergic iPSC-derived neurons. Format: cell-based, human. The conditions noted are these: for 30 μM (Mean), normalized UBE3A-AS RNA level relative to vehicle / Emax Estimate (normalized UBE3A-AS RNA level relative to vehicle): 14 DIV to 20 DIV. As for the experimental part:
ASO-4 and ASO-6.1 were also examined in glutamatergic iPSC-derived neurons. Glutamatergic iPSC-derived neurons were treated at 14 DIV with a 10-point ½ log dose response curve of ASO-4 and ASO-6.1 [1 nM, 3 nM, 10 nM, 30 nM, 100 nM, 300 nM, 1 μM, 3 μM, 10 μM, and 30 μM (n=3)]. At 20 DIV, the IC50 and Emax of each ASO was estimated as described above (FIG. 5E-F and Table 15).
GABAergic and glutamatergic induced pluripotent stem cell (iPSC) derived neural precursor cells (NRC-100-010-001 and GNC-301-030-001, Cellular Dynamics International, Madison Wis.) were differentiated into neurons according to the manufactures protocol. Briefly, neural precursor cells were thawed and resuspended in chemically defined medium and added to sterile-culture plates coated with poly-D-lysine and laminin. The medium was replaced 24 hr after plating and then one-half of the medium was replaced every 3-5 days afterwards.
For cultured iPSC-derived neurons, RNA isolation and cDNA synthesis were performed using the Cell-to-CT kit (Thermo Fisher Scientific) in a lysate volume of 55 μl.
The steady state RNA levels of target transcripts were measured using TaqMan quantitative reverse-transcription PCR (qRT-PCR) assays. Total reaction volume was 10 uL, including 2 μl of cDNA, 1× Gene Expression Master mix (4369016, Thermo Fisher Scientific, Waltham, Mass.), and 1× TaqMan primer assay (Thermo Fisher Scientific). Cycling conditions were 2 minutes at 50° C., 10 minutes at 95° C., and 40 cycles of 15 seconds at 95° C. and 1 minute at 60° C., with readings taken at the 60° C. step of every cycle. Reactions were run on a BIO-RAD T1000 CFX96 thermocycler (Bio-Rad Laboratories, Hercules Calif.), with internal control (PPIA, Hs99999904_m1, Thermo Fisher Scientific) and target [UBE3A-AS, Hs01372957_m1; SNORD116-11, Hs04275268_gH; SNORD115, Hs04275288_gH; IPW, Hs03455409_s1; SNORD109A/B, AP47WVR (Thermo Fisher Scientific); UBE3A: forward […] (SEQ ID NO:500); reverse: […] (SEQ ID NO:501); and, probe: […] (SEQ ID NO:502)] reactions performed together. Data was retrieved and analyzed with the BIORAD CFX Maestro software (Bio-Rad Laboratories). Samples with internal control Cq values ≥30 were filtered. Quality of data was visually inspected to identify discrepancies between technical and/or plate replicates. Measurements for inferential statistics and descriptive statistics consist of ΔΔCq values (2^−ΔΔCq=2^−(Cq[target]−Cq[internal control])−(Cq[target]−Cq[internal control])).

The test system of data set [3] is IPW. In words: IPW steady state RNA (qRT-PCR) in GABAergic iPSC-derived neurons. The conditions noted are these: 10-point dose curve 1 nM-30 μM; 14 DIV to 20 DIV. Background: Real-time PCR tracks product formation cycle by cycle.
The mark [4] stands for this setting: Frontal Cortex (Corona radiata).
[5] abbreviates: parallel model, 4 Parameter logistic, read-out: IC50 (M), UBE3A-AS.
Setting [6] is: treated 14 DIV, RNA 20 DIV, 10-point dose curve, full model, 4-parameter logistic (Hill), read-out: IC50 Estimate, UBE3A-AS.

Read-outs that look alike come from different tables or passages of the source.

Consider “A^L*G^L*A^L*a*t*g*g*c*a*c*a*t*c*t*5mC^L*T^L*T^L*G^L (NNNATGGCACATCTNNNN; LNA gapmer, PS, 5-methylcytosine, chemistry not fully specified) [ASO-4.4.PS.L]”, for which the “UBE3A-AS RNA levels in CNS regions (in words)” value in data set [1] was “reduced UBE3A-AS RNA in most CNS regions, with large effects in temporal lobe, primary motor cortex, pons, medulla, hippocampus, globus pallidus, frontal cortex (corona radiata), prefrontal cortex, and lumbar spinal cord”. The “Cohen's d, effect size on UBE3A-AS RNA levels in CNS” value in data set [1] (versus ASO-6.1.PO-1.O) is 1.0; in data set [1] (versus Vehicle) it was 1.4. For the same compound, the “Difference in UBE3A-AS RNA levels relative to vehicle” value in data set [1] (Caudate Nucleus) is given as −0.21; in data set [1] (Cerebellum) it was −0.05; in data set [1] (setting [4]) it was −0.62; in data set [1] (Frontal cortex) it was −0.71; in data set [1] (Globus Pallidus) it was −0.38; in data set [1] (Hippocampus) it was −0.57. In addition, the “Difference in UBE3A-AS RNA levels relative to vehicle” value in data set [1] (Medulla) is reported as −0.32; in data set [1] (Motor Cortex) it was −0.59; in data set [1] (Oculomotor Nucleus) it was −0.18; in data set [1] (Pons), −0.47; in data set [1] (Putamen), −0.04; in data set [1] (Spinal Cord (Lumbar)), −0.87. Also, the “Difference in UBE3A-AS RNA levels relative to vehicle” value is −0.59 in data set [1] (Temporal Lobe) and −0.20 in data set [1] (Thalamus).
As for “C^O*U^O*G^O*G^O*t*g*t*c*a*a*c*a*a*g*C^O*C^O*A^O*A^O [ASO-6.1]”, the “30 μM (Mean), normalized UBE3A-AS RNA level relative to vehicle” value in data set [2] amounted to 0.04. Besides, the “Emax Estimate (normalized UBE3A-AS RNA level relative to vehicle)” value in data set [2] (4-parameter logistic (Hill)) is −0.27. Moreover, the results for the IC50 in data set [2] (setting [5]) and in data set [2] (setting [6]) were 7.8e-07 M and 2.44e-07 M, respectively.
On to “C^O*U^O*G^O*G^O-t*g*t*c*a*a*c*a*a*g-C^O*C^O*A^O*A^o [ASO-6.1.PO-1.O]”, for which, in data set [1], the “UBE3A-AS RNA levels in CNS regions (in words)” value is “reduced UBE3A-AS RNA levels in most CNS regions, with large effects observed in pons, oculomotor nucleus, and lumbar spinal cord”. The “Cohen's d, effect size on UBE3A-AS RNA levels in CNS” value in data set [1] (versus Vehicle) was determined as 0.3. Further, the “Difference in UBE3A-AS RNA levels relative to vehicle” value in data set [1] (Caudate Nucleus) is reported as 0.10; in data set [1] (Cerebellum), −0.11; in data set [1] (setting [4]), −0.08; in data set [1] (Frontal cortex), 0.01; in data set [1] (Globus Pallidus) it was 0.10; in data set [1] (Hippocampus), −0.19. For the same compound, the “Difference in UBE3A-AS RNA levels relative to vehicle” value is on record as −0.24 in data set [1] (Medulla); −0.19 in data set [1] (Motor Cortex); −0.37 in data set [1] (Oculomotor Nucleus); −0.27 in data set [1] (Pons); 0.07 in data set [1] (Putamen); −0.32 in data set [1] (Spinal Cord (Lumbar)). Further, the “Difference in UBE3A-AS RNA levels relative to vehicle” value in data set [1] (Temporal Lobe) is recorded as 0.13; in data set [1] (Thalamus), −0.02.
With `CC[C@@]1(O)C(=O)OCc2c1cc1n(c2=O)Cc2cc3c(CN(C)C)c(O)ccc3nc2-1` [Topotecan, reference compound], the “effect on IPW RNA levels (in words)” value in data set [3] is “significant effect on SNORD116, IPW, SNORD115, and SNORD109A/B RNA levels that was dose dependent”.
On to “U^O*A^O*G^O*A^O*A^O*t*g*g*c*a*c*a*t*c*t*C^O*U^O*U^O*G^O*G^O [ASO-4]”, for which, in data set [3], the “effect on IPW RNA levels (in words)” value is “significant effect on the RNA levels of IPW, SNORD115, and SNORD109A/B but not in a dose dependent manner”. In addition, the “30 μM (Mean), normalized UBE3A-AS RNA level relative to vehicle” value in data set [2] is recorded as 0.17. The “Emax Estimate (normalized UBE3A-AS RNA level relative to vehicle)” value in data set [2] (4-parameter logistic (Hill)) is given as −1.45. Besides, the IC50 (as a rule, the concentration that gives 50% inhibition) in data set [2] (setting [5]) was 3.06e-06 M; in data set [2] (setting [6]) it was 0.000121 M. In addition, the “Relative Potency” value in data set [2] (parallel model, relative to ASO-4 = 1) amounted to 1.
